Test results taken from patent publication US8247407B2, priority 2007, dated 2012).
Structures can show the parent of a compound that is named as a salt.

Key:
[1] = test system: rats with alloxan diabetes; assay: Hypoglycemic activity, alloxan diabetes model in rats (Example 1); format: in vivo, rat
Experimental: The pharmaceutical compositions for determination of anti-diabetic action had the following composition: active compound—1 g, potato starch—1 g, water—100 ml.
(§1) The comparison of anti-diabetic action of compounds was carried out using a standard model of alloxan diabetes and metmorphin as a comparative drug. The alloxan diabetes was induced by a single subcutaneous injection of water solution of alloxan hydrate (ICN Biomedicals, USA) at a dose of 150 mg/kg to rats weighting 180-200 g that have fasted for 24 hours. The following animal groups were studied: intact rats, diabetic non-treated rats, diabetic rats receiving Polfa-Kutno Ltd.″ metmorphin daily (for 23 days, 200 mg/kg); diabetic rats receiving daily (for 20 days) the abovementioned pharmaceutical compositions containing, as an active components, the compounds described in this invention: MC-200-MC-225. The compounds were administered intragastrically once a day in starch gel at a dose of 50 mg/kg rat weight.
(§2) The experimental drug doses were selected assuming the expected therapeutic doses for man and previously determined toxic doses (LD50 of studied compounds was approximately 500-1,000 mg/kg). The metmorphin dose for rats was extrapolated from the therapeutic dose for man. Drug administration was started on the third day after alloxan injection when blood glucose level increased approximately 3-fold as compared to control value. Each group consisted of 20 animals of both genders.

[2] = test system: white rats with experimental diabetes (alloxan diabetes); assay: Anti-diabetic, hypolipidemic and hypocholesteremic activity, alloxan diabetes model in rats (Example 2); format: in vivo, rat; details: compounds 50 mg/kg, metmorphin 200 mg/kg daily
Experimental: as §1, §2
Pharmaceutical compositions for determination of anti-diabetic action had the same composition as that given in Example I.
The comparison of the anti-diabetic action of compounds was carried out using a standard model of alloxan diabetes, as described in Example I, and metmorphin as a comparative drug.
In the course of experiment, the following parameters were recorded: animal general condition, water consumption, body mass, levels of glucose, total lipids, tri-glycerides, serum blood cholesterol, and glycosylated hemoglobin, using the generally accepted techniques (Laboratory methods of studies in clinical practice, V. V. Menshikov, Ed., Moscow, “Medicine”, 1987).

[3] = diabetic rats' blood, in 10 days, compounds 50 mg/kg intragastrically once a day in starch gel, metmorphin 200 mg/kg daily
[4] = diabetic rats' blood, in 20 days, compounds 50 mg/kg intragastrically once a day in starch gel, metmorphin 200 mg/kg daily

| Compound | Glucose content, mmol/l, in 10 days [1, 3] [mmol/L] | Glucose content, mmol/l, in 20 days [1, 4] [mmol/L] | other results |
| --- | --- | --- | --- |
| CCOC(=O)c1c(CN(C)C)n(C)c2cc(-c3cccnc3)c3c(c12)CN(C)CO3 | 5.6 ± 0.3 | 5.4 ± 0.5 | – |
| CCOC(=O)c1c(CSc2ccc(C)cc2)n(C)c2cc(Br)c(O)c(CN(C)C)c12 [MC-201, 1-methyl-2-p-toluilthiomethyl-3-carbethoxy-4-dimethyl-aminomethyl-5-hydroxy-6-bromoindole] | 6.4 ± 0.4 | 6.2 ± 0.3 | – |
| CCOC(=O)c1c(CSc2ccc(CC)cc2)n(C)c2cc(Br)c(O)c(CN(C)C)c12 [MC-202, 1-methyl-2-(p-ethyl)-phenyl-thiomethyl-3-carbethoxy-4-dimethylaminomethyl-5-hydroxy-6-bromoindole] | 7.3 ± 0.5 | 7.0 ± 0.4 | – |
| CCOC(=O)c1c(CSc2ccccc2)n(-c2ccc(C)cc2)c2cc(Br)c(O)c(CN(C)C)c12 [MC-204, 1-p-toluyl-2-phenylthiomethyl-3-carbethoxy-4-dimethylaminomethyl-5-hydroxy-6-bromoindole] | 6.4 ± 0.3 | 6.2 ± 0.3 | – |
| CCOC(=O)c1c(CSc2ccccc2)n(Cc2ccccc2)c2cc(Br)c(O)c(CN(C)C)c12 [MC-205, 1-benzyl-2-phenylthiomethyl-3-carbethoxy-4-dimethylaminomethyl-5-hydroxy-6-bromoindole] | 8.4 ± 0.6 | 8.1 ± 0.5 | – |
| CCOC(=O)c1c(CSCc2ccccc2)n(C)c2cc(Br)c(O)c(CN(C)C)c12 [MC-206, 1-methyl-2-benzylthiomethyl-3-carbethoxy-4-dimethylaminomethyl-5-hydroxy-6-bromoindole] | 11.2 ± 0.7 | 10.8 ± 0.6 | – |
| CCOC(=O)c1c(CN2CCCC2)n(C)c2cc(-c3cccnc3)c(O)cc12 [MC-207, 1-methyl-2-pyrrolidinyl-1-methyl-3-carbethoxy-5-hydroxy-6-(pyridine-3-yl)indole] | – | – | Glucose content, mmol/l, in 10 days ([1]; rat, in vivo): 5.5 ± 0.2 mmol/L; Glucose content, mmol/l, in 20 days ([1]; rat, in vivo): 5.0 ± 0.3 mmol/L; Body mass ([2]; in 10 days): 186 ± 10 g; Cholesterol ([2]; in 10 days): 2.5 ± 0.3 mmol/L; Daily water consumption ([2]; in 10 days): 24 ± 5 mL; Glucose ([2]; in 10 days): 5.5 ± 0.3 mmol/L; Glycosylated hemoglobin ([2]; in 10 days): 5.1 ± 0.3 mol %; Percent of survived rats ([2]; in 10 days): 100%; Total lipids ([2]; in 10 days): 10.2 ± 0.5 g/L; Tri-glycerides ([2]; in 10 days): 2.5 ± 0.2 mmol/L; β-lipoproteins ([2]; in 10 days): 2.0 ± 0.2 g/L; Body mass ([2]; in 20 days): 182 ± 10 g; Cholesterol ([2]; in 20 days): 1.5 ± 0.2 mmol/L; Daily water consumption ([2]; in 20 days): 20 ± 5 mL; Glucose ([2]; in 20 days): 5.0 ± 0.2 mmol/L; Glycosylated hemoglobin ([2]; in 20 days): 5.0 ± 0.3 mol %; Percent of survived rats ([2]; in 20 days): 90%; Total lipids ([2]; in 20 days): 10.2 ± 0.3 g/L; Tri-glycerides ([2]; in 20 days): 1.8 ± 0.2 mmol/L; β-lipoproteins ([2]; in 20 days): 2.1 ± 0.2 g/L |
| CCOC(=O)c1c(CN(C)C)n(C)c2cc(-c3cccnc3)c(O)cc12 [MC-208, 1-methyl-2-dimethylaminomethyl-3-carbethoxy-5-hydroxy-6-(pyridine-3-yl)indole] | 9.8 ± 0.4 | 9.5 ± 0.4 | – |
| CCOC(=O)c1c(CS(=O)(=O)c2ccccc2)n(C)c2cc(-c3cccnc3)c(O)c(CN(C)C)c12 [MC-210, 1-methyl-2-phenylsulfonylmethyl-3-carbethoxy-4-dimethylaminomethyl-5-hydroxy-6-(pyridine-3-yl)indole] | 5.4 ± 0.2 | 5.3 ± 0.3 | – |
| CCOC(=O)c1c(CN(C)C)n(C)c2cc(-c3cccnc3)c(O)c(CN3CCCC3)c12 [MC-211, 1-methyl-2-dimethylaminomethyl-3-carbethoxy-4-pyrrolidinomethyl-5-hydroxy-6-(pyridine-3-yl)indole trihydrochloride] | 5.0 ± 0.2 | 4.8 ± 0.2 | – |
| CCOC(=O)c1c(CN2CCCC2)n(C)c2cc(-c3cccnc3)c(O)c(CN(C)C)c12 [MC-212, 1-methyl-2-pyrrolidinomethyl-3-carbethoxy-4-dimethylaminomethyl-5-hydroxy-6-(pyridine-3-yl)indole trihydrochloride] | 5.2 ± 0.3 | 5.1 ± 0.3 | – |
| CCOC(=O)c1c(CS(=O)(=O)c2ccccc2)n(C)c2cc(-c3cccnc3)c(O)c(CNC)c12 [MC-214, 1-methyl-2-phenylsulfonylmethyl-3-carbethoxy-4-methylaminomethyl-5-hydroxy-6-pyridinyl-3 indole dihydrochloride] | 10.2 ± 0.8 | 9.9 ± 0.7 | – |
| CCOC(=O)c1c(CSc2ccccc2)n(C)c2cc(-c3cccnc3)c(O)c(CN(C)C)c12 [MC-215, 1-methyl-2-phenylthiomethyl-3-carbethoxy-4-dimethylaminomethyl-5-hydroxy-6-pyridinyl-3 indole] | 5.6 ± 0.2 | 5.4 ± 0.3 | – |
| CCOC(=O)c1c(CSc2ccccc2)n(C)c2cc(C#N)c(O)c(CN(C)C)c12 [MC-216, 1-methyl-2-phenylthiomethyl-3-carbethoxy-4-dimethylaminomethyl-5-hydroxy-6-cyano indole] | 8.4 ± 0.4 | 8.1 ± 0.4 | – |
| CCOC(=O)c1c(C[S+]([O-])Cc2ccccc2OC)n(C)c2cc(Br)c(O)c(CNC(=N)N)c12 (stereo not drawn) [MC-218, 1-methyl-2-(o-methoxy)-benzylsulfinylmethyl-3-carbethoxy-4-guanidinomethyl-5-hydroxy-6-bromoindole hydrochloride] | 7.2 ± 0.4 | 7.1 ± 0.4 | – |
| CCOC(=O)c1c(CSCc2ccccc2)n(C2CC2)c2cc(Br)c(O)c(CNC(=N)N)c12 [MC-219, 1-cyclopropyl-2-benzylthiomethyl-3-carbethoxy-4-guanidinomethyl-5-hydroxy-6-bromoindole] | – | – | Glucose content, mmol/l, in 10 days ([1]; rat, in vivo): 9.3 ± 0.6 mmol/L; Glucose content, mmol/l, in 20 days ([1]; rat, in vivo): 9.0 ± 0.5 mmol/L |
| CCOC(=O)c1c(C[S+]([O-])Cc2ccc(F)cc2)n(C)c2cc(Br)c(O)c(CN3CCOCC3)c12 (stereo not drawn) [MC-220, 1-methyl-2-(p-fluor)-benzylsulfinylmethyl-3-carbethoxy-4--4-morpholinomethyl-5-hydroxy-6-bromoindole hydrochloride] | 5.9 ± 0.2 | 5.8 ± 0.2 | – |
| CCOC(=O)c1c(C[S+]([O-])Cc2ccc(F)c(F)c2)n(C2CC2)c2cc(Br)c(O)c(CN3CCN(C)CC3)c12 (stereo not drawn) [MC-221, 1-cyclopropyl-2-(3,4-difluor)benzylsulfinyl-methyl-3-carbethoxy-4-(N-methyl)-piperazinomethyl-5-hydroxy-6-bromoindole dihydrochloride] | 7.3 ± 0.4 | 7.2 ± 0.4 | – |
| CCOC(=O)c1c(CS(=O)(=O)c2ccccc2)n(C)c2cc(Br)c(O)c(CN(C)C)c12 [MC-222, 1-methyl-2-phenylsulfonylmethyl-3-carbethoxy-4-dimethylaminomethyl-5-hydroxy-6-bromoindole] | 6.4 ± 0.3 | 6.2 ± 0.3 | – |
| CCOC(=O)c1c(C[S+]([O-])c2ccccc2)n(C)c2cc(Br)c(O)c(CN(C)C)c12 (stereo not drawn) [MC-223, 1-methyl-2-phenylsulfinylmethyl-3-carbethoxy-4-dimethylaminomethyl-5-hydroxy-6-bromoindole] | 8.4 ± 0.6 | 8.2 ± 0.6 | – |
| CCOC(=O)c1c(C[S+]([O-])c2ccccc2)n(C)c2cc(Br)c(O)cc12 (stereo not drawn) [MC-225, 1-methyl-2-phenylsulfinylmethyl-3-carbethoxy-5-hydroxy-6-bromoindole] | 8.2 ± 0.5 | 7.9 ± 0.4 | – |
